Results published in ChEMBL document CHEMBL3259669, “The discovery and SAR of cyclopenta[b]furans as inhibitors of CCR2” (Bioorg Med Chem Lett, 2014).

Columns and labels:
[1] = Plasma concentration in guinea pig at 10 mg/kg; type: ADME, organism-based, Cavia porcellus; design: dose 10 mg/kg; conditions: in vivo
[2] = test system: Plasma; test: Plasma concentration in thioglycolate-induced peritoneal leukocyte infiltration in human CCR2 knock-in mouse model at 1 mg/kg, po; type: ADME, organism-based; design: dose 1 mg/kg, route oral; conditions: in vivo
[3] = buffer
[4] = human, microsomes
[5] = rat, microsomes
[6] = organism: Rattus norvegicus; conditions: in vivo, iv, 2 mg/kg
[7] = in vivo; conditions: rat
[8] = in vivo; conditions: rat, po, 10 mg/kg
[9] = in vivo; conditions: rat, plasma
[10] = in vivo; conditions: rat, iv, 2 mg/kg
[11] = in vivo; conditions: rat, po, 10 mg/kg; remark: listed apart in the source

| concentration [1] | concentration [2] | solubility [3] | Stability [4] | Stability [5] | CL [6] | half-life [7] | Cmax [8] | AUC(0-t) [9] | Vd [10] | bioavailability [11] | SMILES |
| --- | --- | --- | --- | --- | --- | --- | --- | --- | --- | --- | --- |
| 23 µM | 0.097 µM | soluble | Stable | Stable | 15.6 mL/mg/kg | 3.8 h | 2200 ng/mL | 9760 ng·h/mL | 3.2 L/kg | 94% | CO[C@@H]1COCC[C@@H]1N[C@@H]1C[C@H]2OCC[C@@]2(C(=O)N2CCc3ncc(C(F)(F)F)cc3C2)C1 |
| 18 µM | 0.098 µM | soluble | Stable | Stable | 43.2 mL/mg/kg | 3.5 h | 632 ng/mL | 3540 ng·h/mL | 5 L/kg | 91% | CO[C@H]1COCC[C@H]1N[C@@H]1C[C@H]2OCC[C@@]2(C(=O)N2CCc3ncc(C(F)(F)F)cc3C2)C1 |
